Test results as given in the NIST ThermoML archive (doi:10.1021/je049685z).
± gives the expanded uncertainty stated by the source.

Columns and labels:
[1] = Liquid
[2] = xn = mol fraction of the nth substance listed; conditions: Liquid, x1 = 1

CCCO [propan-1-ol]
mass density [kg/m3], [1]
Conditions	100 kPa	5000 kPa	10000 kPa	15000 kPa	20000 kPa	25000 kPa	30000 kPa
303.15 K	795.6 ± 0.4	799.5 ± 0.4	803.4 ± 0.5	807 ± 0.6	810.5 ± 0.7	813.9 ± 0.8	817.2 ± 0.9
313.15 K	787.6 ± 0.4	791.6 ± 0.5	795.7 ± 0.5	799.5 ± 0.6	803.2 ± 0.7	806.7 ± 0.8	810.1 ± 0.9
323.15 K	779.1 ± 0.4	783.4 ± 0.5	787.7 ± 0.6	791.7 ± 0.7	795.6 ± 0.7	799.3 ± 0.8	802.9 ± 0.9
333.15 K	770.6 ± 0.4	775.1 ± 0.5	779.6 ± 0.6	783.9 ± 0.7	787.9 ± 0.8	791.8 ± 0.9	795.5 ± 1

CCCO [propan-1-ol] + Cc1ccccc1
mass density [kg/m3], [2]
Conditions	100 kPa	5000 kPa	10000 kPa	15000 kPa	20000 kPa	25000 kPa	30000 kPa
303.15 K	795.6 ± 0.4	799.5 ± 0.4	803.4 ± 0.5	807 ± 0.6	810.5 ± 0.7	813.9 ± 0.8	817.2 ± 0.9
313.15 K	787.6 ± 0.4	791.6 ± 0.5	795.7 ± 0.5	799.5 ± 0.6	803.2 ± 0.7	806.7 ± 0.8	810.1 ± 0.9
323.15 K	779.1 ± 0.4	783.4 ± 0.5	787.7 ± 0.6	791.7 ± 0.7	795.6 ± 0.7	799.3 ± 0.8	802.9 ± 0.9
333.15 K	770.6 ± 0.4	775.1 ± 0.5	779.6 ± 0.6	783.9 ± 0.7	787.9 ± 0.8	791.8 ± 0.9	795.5 ± 1

Cc1ccccc1 [toluene]
mass density [kg/m3], [1]
Conditions	100 kPa	5000 kPa	10000 kPa	15000 kPa	20000 kPa	25000 kPa	30000 kPa
303.15 K	857.4 ± 0.3	861.3 ± 0.3	865.1 ± 0.4	868.7 ± 0.4	872.3 ± 0.5	875.6 ± 0.6	878.9 ± 0.6
313.15 K	848.1 ± 0.3	852.1 ± 0.3	856.2 ± 0.4	860 ± 0.5	863.7 ± 0.5	867.2 ± 0.6	870.7 ± 0.6
323.15 K	838.6 ± 0.3	842.9 ± 0.3	847.2 ± 0.4	851.2 ± 0.5	855.1 ± 0.5	858.9 ± 0.6	862.5 ± 0.7
333.15 K	829.2 ± 0.3	833.7 ± 0.4	838.2 ± 0.4	842.5 ± 0.5	846.6 ± 0.6	850.5 ± 0.6	854.3 ± 0.7
